Data set [1] can be described thus: Toxicity in […] at 10 mg/kg, sc assessed as rate of death. The following applies: in vivo, read-out: Activity. The format is organism-based. Also on record: dose 10 mg/kg, route subcutaneous.
A short description of data set [2]: Toxicity in […] at 20 mg/kg, sc assessed as rate of death. The format is organism-based. More on the design: dose 20 mg/kg, route subcutaneous. The following applies: in vivo, read-out: Activity.
In data set [3] the test system is Mus musculus. Description: Analgesic activity in mice at 10 mg/kg, sc by acetic acid writhing test. The class given is functional. The following applies: route subcutaneous. In general terms: An intraperitoneal irritant provokes the stretching counted in writhing tests.
Data set [4] concerns Mus musculus. The data set is described as follows: Analgesic activity in mice at 20 mg/kg, sc by acetic acid writhing test. The class given is functional. The conditions noted are these: route subcutaneous.
Data set [5] relates to Mus musculus. The data set is described as follows: Analgesic activity in mice at 5 mg/kg, sc by acetic acid writhing test. The conditions noted are these: read-out: Inhibition.
The nature of data set [6]: Toxicity in rat at 5 mg/kg, sc assessed as rate of death. The following applies: in vivo.

On to `c1cncc(CNCCc2ccco2)c1`, for which the mortality in data set [1] and in data set [2] was 0% throughout. For the same compound, in the data set on Mus musculus [3], the inhibition in vivo at 10 mg/kg stood at 0%. For the same compound, the inhibition in vivo at 20 mg/kg in the data set with Mus musculus [4] turned out to be 50%.

As to `c1cncc(CNCCC2CCCO2)c1` (centres undefined), the mortality in data set [1] and in data set [2] was 0% each time. Further, in the data set on Mus musculus [3], the inhibition in vivo at 10 mg/kg is 56%. Further, the inhibition in vivo at 20 mg/kg in the data set on Mus musculus [4] stood at 23%.

Regarding `Clc1ccc(CNCCC2CCCO2)cn1` (centres undefined), the mortality in data set [2] is 0%. The compound also displayed an inhibition in vivo at 20 mg/kg with Mus musculus [4] of 35%.

Turning to `c1ccc(NCCc2ccco2)nc1`, the mortality in data set [2] came out at 0%. The compound further had an inhibition in vivo at 20 mg/kg in the data set with Mus musculus [4] of 0%.

Take `Clc1ccc(CNCCc2ccco2)cn1`: the mortality in data set [1] and in data set [2] was 0% each time. For the same compound, the inhibition in vivo at 10 mg/kg with Mus musculus [3] stood at 41%. The compound also gave an inhibition in vivo at 20 mg/kg in the data set with Mus musculus [4] of 46%.

`Clc1ccc(CNC2CCCC2)cn1`: the mortality in data set [1] and in data set [2] was 0% in each case. The same compound registered an inhibition in vivo at 10 mg/kg with Mus musculus [3] of 37%. This compound also had an inhibition in vivo at 20 mg/kg in the data set on Mus musculus [4] of 66%.

`c1cncc(NCC2CO2)c1` (centres undefined): the mortality in data set [2] amounted to 0%. In the data set with Mus musculus [4], this compound gave an inhibition in vivo at 20 mg/kg of 0%.

Take `Clc1ccc(NCC2CCCO2)cn1` (centres undefined): the mortality in data set [2] turned out to be 0%. For the same compound, the inhibition in vivo at 20 mg/kg in the data set on Mus musculus [4] came to 0%.

In the case of `Clc1ccc(NCC2CO2)cn1` (centres undefined), in data set [2], the mortality turned out to be 0%. The compound further returned an inhibition in vivo at 20 mg/kg in the data set on Mus musculus [4] of 20.5%.

Take `c1ccc(NCCC2CCCO2)nc1` (centres undefined): the mortality in data set [2] amounted to 0%. In the data set with Mus musculus [4], this compound had an inhibition in vivo at 20 mg/kg of 0%.

Turning to `c1ccc(CNC2CCCC2)nc1`, the mortality in data set [2] was found to be 0%. For the same compound, the inhibition in vivo at 20 mg/kg with Mus musculus [4] is 0%.

For `c1cncc(CNC2CCCC2)c1`, the mortality in data set [1] and in data set [2] was 0% each time. The inhibition in vivo at 10 mg/kg in the data set on Mus musculus [3] came to 0%. The same compound came in with an inhibition in vivo at 20 mg/kg with Mus musculus [4] of 61%.

Take `CN1CCC[C@H]1c1cccnc1` [NICOTINE]: in the data set with Mus musculus [5], the inhibition in vivo at 5 mg/kg was 88%. The mortality in data set [1] was 50%; in data set [2], 100%; in data set [6] it was 25%. Moreover, the inhibition in vivo at 10 mg/kg in the data set with Mus musculus [3] turned out to be 100%.
